Test results reported in patent publication US6197768A, “Pyridocarbazole derivatives having cgmp-pde inhibitory activity” (Mochida Pharmaceutical Co., Ltd., priority 1996, dated 2001).
Like-named read-outs stand apart in the source and are kept apart here.

How the values were obtained:
[1] = system: pulmonary arterial pressure; test: Pulmonary Arterial Pressure Lowering Action in anesthetized dogs; type: in vivo, adult mongrel dogs; conditions: anesthetized dogs
Procedure: (§1) Adult mongrel dogs were anesthetized by intramuscular administration of 20 mg/kg of ketamine and intravenous administration of 20 mL/kg of physiological saline containing 5 mg/mL of α-chloralose; under artificial respiration, the aortic pressure was measured with a catheter inserted into the femoral artery and the pulmonary arterial pressure with a Swan-Ganz catheter inserted into the pulmonary artery. Anesthesia was maintained by intravenous administration of physiological saline containing 5 mg/mL of α-chloralose at a rate of 5 mL/kg per hour. Comparison was made between nitroglycerin, nifedipine and test compounds which were administered intravenously at doses of 0.01-1 mg/kg. Each test compound was dissolved in dimethylformamide (DMF) and sequentially diluted with polyethylene glycol 200 and water to give respective proportions of 20, 50 and 30% (v/v) and administrated by injection into the right femoral vein in a volume of 0.3 mL/kg. The results are shown in Table 2 below, in which maximal percent decreases in the pulmonary arterial pressure and aortic pressure are listed to show the effectiveness of each test compound in lowering the pulmonary arterial pressure and the systemic blood pressure, respectively.

systemic blood pressure = test: Systemic blood (aortic) pressure lowering in anesthetized dogs; type: in vivo, adult mongrel dogs
Procedure: as §1

PDE type III = target: T1, PDE type III (Canis lupus familiaris, UniProt A0A8I3NYE0); test: PDE Inhibiting Activity, type III; type: biochemical, dog (canine aorta)
T1 construct: PDE was purified from the aorta in a dog; from tissue; host or cells: dog aorta
T1 sequence (A0A8I3NYE0 1-1135): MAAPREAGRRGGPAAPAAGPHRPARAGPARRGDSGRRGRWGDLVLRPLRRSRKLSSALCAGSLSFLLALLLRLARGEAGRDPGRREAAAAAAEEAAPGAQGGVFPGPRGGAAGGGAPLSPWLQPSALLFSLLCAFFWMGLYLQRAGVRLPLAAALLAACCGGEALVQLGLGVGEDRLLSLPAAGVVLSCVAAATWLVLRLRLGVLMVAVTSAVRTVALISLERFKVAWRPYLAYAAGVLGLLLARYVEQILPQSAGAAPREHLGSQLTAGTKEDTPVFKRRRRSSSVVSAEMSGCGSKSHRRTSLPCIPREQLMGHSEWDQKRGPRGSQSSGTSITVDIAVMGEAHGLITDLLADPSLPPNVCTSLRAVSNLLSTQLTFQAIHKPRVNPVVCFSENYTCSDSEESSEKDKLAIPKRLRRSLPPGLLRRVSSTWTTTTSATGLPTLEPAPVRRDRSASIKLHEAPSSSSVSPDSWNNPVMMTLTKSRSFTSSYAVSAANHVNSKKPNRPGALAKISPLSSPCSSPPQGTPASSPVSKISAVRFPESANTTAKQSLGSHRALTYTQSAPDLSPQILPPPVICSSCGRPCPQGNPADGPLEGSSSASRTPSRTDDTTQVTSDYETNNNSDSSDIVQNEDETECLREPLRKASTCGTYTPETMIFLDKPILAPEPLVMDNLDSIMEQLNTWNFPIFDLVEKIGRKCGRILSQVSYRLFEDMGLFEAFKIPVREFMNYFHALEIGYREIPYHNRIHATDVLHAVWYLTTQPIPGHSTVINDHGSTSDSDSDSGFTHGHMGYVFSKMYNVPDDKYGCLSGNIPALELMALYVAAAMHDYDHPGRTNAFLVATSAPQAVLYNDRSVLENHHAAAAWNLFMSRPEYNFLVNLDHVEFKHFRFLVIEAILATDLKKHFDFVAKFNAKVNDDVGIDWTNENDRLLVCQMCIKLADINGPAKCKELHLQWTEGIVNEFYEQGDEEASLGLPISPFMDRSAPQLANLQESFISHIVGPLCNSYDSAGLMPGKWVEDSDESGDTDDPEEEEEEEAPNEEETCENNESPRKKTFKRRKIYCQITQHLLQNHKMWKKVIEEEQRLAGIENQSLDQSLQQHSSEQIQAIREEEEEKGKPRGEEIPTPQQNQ
Procedure: (§2) On the basis of the method of Lugnier et al. (Biochem. Pharmacol., 35, 1743-1751, 1986), PDE was purified from the aorta in a dog. The canine aorta was minced and homogenized with a Waring Blender and a glass homogenizer in six volumes of a Tris-HCl buffer solution (pH 7.5, 20 mM) containing 2 mM magnesium acetate, 5 mM ethylenediaminetetraacetic acid (EDTA), 100 μg/mL of phenylmethylsulforyl fluoride and 15 mM 2-mercaptoethanol (2-ME), and centrifuged at 1200 xg for 30 min. The supernatant was separated and salted out with ammonium sulfate which was added to 45% saturation. The resulting precipitated fraction was resuspended in a Tris-HCl buffer solution (pH 7.5, 20 mM) containing 2 mM magnesium acetate and 1 mM 2-ME, dialyzed overnight and applied to a DEAE-trisacryl column (DEAE […] M:IBF). By elution with a sodium chloride gradient (0-0.4 M), PDE types V and III were separated from the other isozymes. The supernatant fraction of 45% saturated ammonium sulfate was further mixed with ammonium sulfate to 65% saturation and salted out. The resulting precipitated fraction was similarly applied to the DEAE-trisacryl column and eluted by a sodium chloride gradient (0-0.4 M) so as to separate PDE type I.
(§3) The thus obtained PDE types V, III and I were measured for their activity in accordance with the method of Thompson et al. (Adv. Cyclic Nucleotide Res., 10, 69-72, 1979) and the method of Wells et al. (Biochim. Biophys. Acta, 384, 430-443, 1975). Specifically, a purified PDE sample was added to 50 mM Tris-HCl buffer solution (pH 7.5) containing 1 μM of substrate cGMP or cAMP (containing tritium-labelled cGMP or cAMP), 1 mM EGTA and 2 mM magnesium acetate. For PDE activity measurement, enzymatically produced 5' GMP or 5' AMP was further hydrolyzed into guanosine or adenosine with snake venom and separated from the substrate by means of an ion-exchange resin (Dowex 1-X2), followed by measuring with a scintillation counter. The activity of each test compound was determined as a percentage of the DPE activity measured when it was added as a dimethyl sulfoxide solution (DMSO) and its IC50 (50% inhibition concentration) was calculated by the probit method. The final concentration of DMSO was adjusted to be no more than 2% in consideration of the effect on PDE activity.

PDE type I = test: PDE Inhibiting Activity, type I; type: biochemical, dog (canine aorta); conditions: PDE type I from canine aorta, 1 μM substrate, pH 7.5; read-out: Inhibition Activity IC50, Type I
Procedure: as §2, §3

[2] = Canis lupus familiaris, iv, 0.3 mg/kg intravenous, maximal percent decrease, read-out: Reduction in pulmonary arterial pressure
[3] = Canis lupus familiaris, iv, 0.3 mg/kg intravenous, anesthetized dogs, maximal percent decrease, read-out: Reduction in systemic blood pressure
[4] = PDE type III from canine aorta, 1 μM substrate, pH 7.5, read-out: Inhibition Activity IC50, Type III

Row | IC50 (PDE type III; [4]) [µM] | IC50 (PDE type I) [µM] | SMILES | inhibition in vivo at 0.3 mg/kg [1, 2] [%] | inhibition in vivo at 0.3 mg/kg (systemic blood pressure; [3]) [%] | also measured
1 |  |  | O=c1c(Cc2cccnc2)cn2c3cc(C(F)(F)F)ccc3c3cc(OCCCO)cc1c32 [Example 291, 2-(3-hydroxypropyloxy)-5-(3-pyridylmethyl)-9-trifluoromethyl-4H-pyrido[3,2,1-jk]carbazole-4-one methanesulfonate] | 13 | 4 | 
2 | 9.3 | > 30 | O=c1c(Cc2cccnc2)cn2c3cc(Br)ccc3c3cc(O)cc1c32 [Example 102, 9-bromo-2-hydroxy-5-(3-pyridylmethyl)-4H-pyrido [3,2,1-jk]carbazole-4-one] | 24 | 19 | 
3 | 2.4 | > 30 | O=c1c(Cc2cccnc2)cn2c3cc(Br)ccc3c3cc(OCc4cccnc4)cc1c32 [Example 105, 9-bromo-5-(3-pyridylmethyl)-2-(3-pyridylmethyloxy)-4H-pyrido [3,2,1-jk]carbazole-4-one] |  |  | inhibition in vivo at 0.1 mg/kg ([1]; Canis lupus familiaris, iv, 0.1 mg/kg intravenous, maximal percent decrease, read-out: Reduction in pulmonary arterial pressure): 16%; inhibition in vivo at 0.1 mg/kg (systemic blood pressure; Canis lupus familiaris, iv, 0.1 mg/kg intravenous, anesthetized dogs, maximal percent decrease, read-out: Reduction in systemic blood pressure): 12%
4 |  |  | CS(=O)(=O)O.O=c1c(Cc2cccnc2)cn2c3cc(Br)ccc3c3cc(OCCCO)cc1c32 [Example 279, 9-bromo-2-(3-hydroxypropyloxy)-5-(3-pyridylmethyl)-4H-pyrido[3,2,1-jk]carbazole-4-one methanesulfonate] |  |  | Reduction in pulmonary arterial pressure ([1]; 0.3 mg/kg intravenous, maximal percent decrease): 17%; Reduction in systemic blood pressure (systemic blood pressure; 0.3 mg/kg intravenous, anesthetized dogs, maximal percent decrease): 4%
5 |  |  | O=c1c(Cc2cccnc2)cn2c3cc(Cl)ccc3c3cc(OCCCO)cc1c32 [Example 285, 9-chloro-2-(3-hydroxypropyloxy)-5-(3-pyridylmethyl)-4H-pyrido[3,2,1-jk]carbazole-4-one methanesulfonate] | 16 | 2 | 
6 |  |  | COC(=O)C1=C(C)NC(C)=C(C(=O)OC)C1c1ccccc1[N+](=O)[O-] [Nifedipine, nifedipine, reference compound] |  |  | inhibition in vivo at 0.01 mg/kg ([1]; Canis lupus familiaris, iv, 0.01 mg/kg intravenous, maximal percent decrease, read-out: Reduction in pulmonary arterial pressure): 3%; pulmonary arterial versus systemic blood pressure lowering (in words) ([1]; intravenous): lowered the systemic blood pressure by greater degrees than the pulmonary arterial pressure; inhibition in vivo at 0.01 mg/kg (systemic blood pressure; Canis lupus familiaris, iv, read-out: Reduction in systemic blood pressure): 18%
7 | 10 | > 30 | O=c1c(Cc2cccnc2)cn2c3cc(Br)ccc3c3cc(OCCCO)cc1c32 [Example 110, 9-bromo-2-(3-hydroxypropyloxy)-5-(3-pyridylmethyl)-4H-pyrido [3,2,1-jk]carbazole-4-one] | 23 | 7 | 
8 | > 100 | > 100 | O=c1ccn2c3ccc(Br)cc3c3cc(O)cc1c32 [Example 59, 10-bromo-2-hydroxy-4H-pyrido [3,2,1-jk]carbazole-4-one] |  |  | 
9 | 198 | > 300 | Cc1cn2c3ccc(Br)cc3c3cc(O)cc(c1=O)c32 [Example 49, 10-bromo-2-hydroxy-5-methyl-4H-pyrido [3,2,1-jk]carbazole-4-one] |  |  | 
10 | > 30 | > 30 | O=c1c(Cc2cccnc2)cn2c3cc(Br)ccc3c3cc(OCc4cncc(CO)c4)cc1c32 [Example 107, 9-bromo-2-(5-hydroxymethyl-3-pyridylmethyloxy)-5-(3-pyridylmethyl)-4H-pyrido [3,2,1-jk]carbazole-4-one] |  |  | 
11 | 5.6 | > 30 | CC(=O)Oc1cc2c(=O)c(Cc3cccnc3)cn3c4ccccc4c(c1)c23 [Example 156] |  |  | 

Row | SMILES | IC50 (PDE type III; [4]) [µM] | IC50 (PDE type I) [µM] | inhibition in vivo at 0.3 mg/kg [1, 2] [%] | inhibition in vivo at 0.3 mg/kg (systemic blood pressure; [3]) [%] | also measured
12 | CC(C)(C)OC(=O)COc1cc2c(=O)ccn3c4ccc(Br)cc4c(c1)c23 [Example 60, 10-bromo-2-t-butoxycarbonylmethyloxy-4H-pyrido [3,2,1-jk]carbazole-4-one] | 15 | > 30 | 20 | 8 | 
13 | CC(C)(C)OC(=O)COc1cc2c(=O)c(Cc3cccnc3)cn3c4ccc(Br)cc4c(c1)c23 [Example 3, 10-bromo-2-t-butoxycarbonylmethyloxy-5-(3-pyridylmethyl)-4H-pyrido [3,2,1-jk]carbazole-4-one] | > 30 | > 30 | 19 | 12 | 
14 | CCNC(=O)COc1cc2c(=O)c(Cc3cccnc3)cn3c4cc(Br)ccc4c(c1)c23 [Example 109, 9-bromo-2-(N-ethylcarbamoylmethyloxy)-5-(3-pyridylmethyl)-4H-pyrido [3,2,1-jk]carbazole-4-one] |  | > 30 | 19 | 11 | IC50 (PDE type III): 14 µM
15 | Cc1cn2c3ccc(Br)cc3c3cc(OCC(=O)OC(C)(C)C)cc(c1=O)c32 [Example 50, 10-bromo-2-t-butoxycarbonylmethyloxy-5-methyl-4H-pyrido [3,2,1-jk]carbazole-4-one] | > 30 | > 30 | 33 | 13 | 
